Consider eight molecules from PMC6271780, “Determination of Bioactive Components in Chinese Herbal Formulae and Pharmacokinetics of Rhein in Rats by UPLC-MS/MS” (Molecules, 2014).

The structures appear in SMILES notation.

Data set [1] in a line: Comparative pharmacokinetics of rhein in rats after oral rhein, rhubarb or SHXXT (plasma, UPLC-MS/MS). Format: in vivo, Sprague-Dawley rats. An excerpt: All animal experimental protocols were reviewed and approved by the Institutional Animal Care and Use Committee (IACUC number: 1011202) of National Yang-Ming University. Male specific pathogen-free Sprague-Dawley rats were obtained from the Laboratory Animal Center of the National Yang-Ming University, Taipei, Taiwan. The animals had free access to food (laboratory rodent diet 5P14, PMI Feeds, Richmond, IN, USA) and water. For pharmacokinetic study, Sprague-Dawley rats weighing 220 ± 20 g were anesthetized with pentobarbital (50 mg/kg, i.p.) for cannulation. A polyethylene tube (PE50) was implanted into the left carotid artery for blood sampling. The cannula was exteriorized, fixed in the dorsal region of the neck. Patency of the tube was maintained by flushing with heparinized saline (20 IU/mL). After surgery, the rats were kept in cages individually and allowed to recover for one day. The dose of herbal formula for translation from human to animal is recommended by the US Food and Drug Administration guidelines as the following conversion equation : Human equivalent dose (HED, mg/kg) = animal dose (mg/kg) × (animal Km/human Km). Study on pharmacokinetics of rhein at 50, 100, and 200 mg in human (60 kg in adults) has been investigated, and therefore, rhein at 11.9 mg/kg was studied in this study according to the dose translation equation. Briefly, the pure compound rhein, the rhubarb extract, and the SHXXT formula suspended in water at doses of 11.9 mg/kg, 5.2 g/kg, and 5 g/kg were individually administered to rats by oral gavage. The doses of rhubarb extract and SHXXT extract were equivalent to rhein administration dose of 11.9 mg/kg. About 200 µL of blood samples was withdrawn from the cannula implanted in the carotid artery and placed into a heparin-rinsed vial at 0, 15, 30, 45, 60, 90, 120, 150, 180, 240, 300 and 360 min. The method of plasma sample preparation was slightly modified from the previous study. For quantitative analysis, the plasma sample (50 µL) was vortex-mixed with acetonitrile (100 µL) for protein precipitation. Data from these samples were used to construct the pharmacokinetic curve of rhein. The plasma sample was diluted by blank plasma sample at an appropriate ratio before analysis if the rhein concentration was excess 2500 ng/mL. Pharmacokinetic calculations were performed on each individual set of data using the pharmacokinetic software WinNonlin Standard Edition, version 1.1 (Pharsight Corp., Mountain View, CA, USA) by noncompartmental methods.

On the set-up of data set [2]: method as in PMID 21945452. The settings on record: Chinese healthy subjects, single oral administration, range 50–200 mg; cited from earlier work.
Details of data set [3]: method as in PMID 19737807. The settings on record: after SHXXT; cited from earlier work.
Details of data set [4]: method as in PMID 24214833. The conditions noted are these: cited from earlier work; for detection in rat plasma, decoction group: after oral administration of SHXXT decoction; for detection in rat plasma, maceration group: after oral administration of SHXXT maceration.
The mark [5] stands for this setting: after oral administration of SHXXT.
Setting [6] is: male, Sprague-Dawley, po, rhein in rat plasma, rhein 11.9 mg/kg, rhubarb 5.2 g/kg or SHXXT 5 g/kg (each equivalent to rhein 11.9 mg/kg), n = 6, mean ± SD.
[7] abbreviates: rhein in rat plasma, p.o., rhein 11.9 mg/kg, rhubarb 5.2 g/kg or SHXXT 5 g/kg (each equivalent to rhein 11.9 mg/kg), n = 6, mean ± SD.

Regarding `O=C(O)c1cc(O)c2c(c1)C(=O)c1cccc(O)c1C2=O` [Rhein, 4,5-dihydroxy-9,10-dioxoanthracene-2-carboxylic acid], the “free (unconjugated) form detected in rat plasma” value (shortened to “free”) in data set [1] (setting [5]) is recorded as “existed in the free form”. Besides, the mean residence time MRT (in general, a mean duration of stay, worked out from the concentration-time curve) in data set [1] (male, Sprague-Dawley, po, rhein in rat plasma, p.o., rhein 11.9 mg/kg, rhubarb 5.2 g/kg or SHXXT 5 g/kg (each equivalent to rhein 11.9 mg/kg), n = 6, mean ± SD, read-out: MRT (mean residence time) (converted)) is 1.87 h. For the same molecule, the half-life in data set [1] (male, Sprague-Dawley, po, rhein in rat plasma, p.o., rhein 11.9 mg/kg, rhubarb 5.2 g/kg or SHXXT 5 g/kg (each equivalent to rhein 11.9 mg/kg), n = 6, mean ± SD, read-out: T1/2 (elimination half-life)) was determined as 2.4 ± 0.287 h. In data set [1] (setting [6]), the AUC (commonly the area under the concentration-time curve, a measure of exposure) is 3130 ng·h/mL; the peak concentration (Cmax) (as a rule, the highest concentration seen after dosing) was determined as 2450 ± 550 ng/mL; the time of peak concentration (Tmax) (in general, the time from dosing to the highest level) is 0.417 h. For the same molecule, in data set [1] (setting [7]), the “CL (total body clearance)” value was 58 ± 7.89 mL/min/kg and the “Vss (volume of distribution)” value was 12.2 ± 2.10 L/kg. For the same molecule, in data set [2], the “dose linearity of pharmacokinetics” value is “linear pharmacokinetics”.
Turning to `O=c1cc(-c2ccccc2)oc2cc(O)c(O)c(O)c12` [baicalein], the “free” value in data set [1] (setting [5]) was “not detected”. Also, the “forms determined in serum” value in data set [3] is “only the conjugated metabolites”.
Regarding `O=C(O)[C@H]1O[C@@H](Oc2cc3oc(-c4ccccc4)cc(=O)c3c(O)c2O)[C@H](O)[C@@H](O)[C@@H]1O` [baicalin], in data set [1] (setting [5]), the “free” value is “not detected”.
As for `COc1ccc2cc3[n+](cc2c1OC)CCc1cc2c(cc1-3)OCO2` [berberine], in data set [1] (setting [5]), the “free” value is reported as “not detected”. For the same molecule, in data set [4], the “detection in rat plasma, decoction group” value is given as “detected” and the “detection in rat plasma, maceration group” value (“detection … maceration group” below) is “absent”.
In the case of `c1c2c(cc3c1OCO3)-c1cc3ccc4c(c3c[n+]1CC2)OCO4` [coptisine], in data set [4], the “detection in rat plasma, decoction group” value is on record as “detected” and the “detection … maceration group” value is “absent”.
On to `Cc1cc(O)c2c(c1)C(=O)c1cc(O)cc(O)c1C2=O` [emodin], for which the “free” value in data set [1] (setting [5]) is given as “not detected”. In data set [3], the “forms determined in serum” value is listed as “only the conjugated metabolites”.
Take `COc1cc2c(cc1O)CC[n+]1cc3c(OC)c(OC)ccc3cc1-2` [jatrorrhizine]: in data set [4], the “detection in rat plasma, decoction group” value is reported as “detected” and the “detection … maceration group” value is “absent”.
Turning to `COc1cc2c(cc1OC)-c1cc3ccc(OC)c(OC)c3c[n+]1CC2` [palmatine], in data set [1] (rat, in vivo, po), the “free” value is on record as “not detected”. For the same molecule, in data set [4], the “detection in rat plasma, decoction group” value was “detected” and the “detection … maceration group” value is given as “absent”.
